Reference: patent US7560435B2, “Therapeutic use of riboside of 5-aminoimidazole-4-carboxamide (acadesine)” (Advanced In Vitro Cell Technologies, S. A., priority 2002, dated 2009)

How the values were obtained:
[1] = healthy individuals, given intravenously; cited from earlier work
[2] = system: CD3+/CD19- T cells from B-CLL patients; experiment: Apoptosis/viability by flow cytometry, T cells from B-CLL samples; assay type: cell-based, human; conditions: 24 h
Text: Forty-six patients with B-CLL, seven patients with SMZL, two patients with lymphoproliferative disorder without a specific diagnosis, and four healthy donors were studied. All patients were diagnosed according to standard clinical and laboratory criteria. Written informed consent was obtained from all patients. Mononuclear cells from peripheral blood samples were isolated by centrifugation on a Ficoll/Hypaque (Seromed, Berlin, Germany) gradient and cryopreserved in liquid nitrogen in the presence of 10% dimethyl sulfoxide (DMSO). […] Apoptosis was measured by annexin V binding. Exposure of phosphatidylserine was quantified by surface annexin V staining as previously described (cf. B. Bellosillo et al., Blood 1998, vol. 92, pp. 1406-1414). […] Data were analyzed using Cell Quest software. To analyze whether the induction of apoptosis in B-CLL patients was selective to B cells, we counted the apoptotic T cells (CD3 positive cells) in four B-CLL blood samples treated for 24 h with several doses of acadesine. […] Viability (V) was measured as non apoptotic CD3+/CD19− T cells (empty symbols) or CD3−/CD19+B cells (full symbols), and it is expressed as the percentage of the viability of non treated cells. […] Viability is expressed as the mean value ± standard deviation.

Jurkat (T cell line) = experiment: Effects of acadesine in cell lines: Jurkat; assay type: cell-based
Text: (§1) Another important advantage of the invention is the selectivity and the concentration of acadesine necessary to induce apoptosis. […] This means that the possible side effects coming from damaging other cellular types are minor when using acadesine as a therapeutical agent.

293 = experiment: Effects of acadesine in cell lines: 293; assay type: cell-based
Text: as §1

[3] = system: B cells from patients with lymphoproliferative disorder without a specific diagnosis; experiment: Apoptosis/viability by flow cytometry, B cells, lymphoproliferative disorder without a specific diagnosis; assay type: cell-based, human; conditions: 0.5 mM and 1.0 mM, 24 h, two patients
Text: (§2) Forty-six patients with B-CLL, seven patients with SMZL, two patients with lymphoproliferative disorder without a specific diagnosis, and four healthy donors were studied. All patients were diagnosed according to standard clinical and laboratory criteria. Written informed consent was obtained from all patients. Mononuclear cells from peripheral blood samples were isolated by centrifugation on a Ficoll/Hypaque (Seromed, Berlin, Germany) gradient and cryopreserved in liquid nitrogen in the presence of 10% dimethyl sulfoxide (DMSO). Lymphocytes were cultured immediately after thawing at a concentration of 2 to 5×10^6 cells/ml in RPMI 1640 culture medium (Biological Industries, Beit Haemek, Israel) supplemented with 10% heat-inactivated fetal calf serum (Gibco-BRL, Paisley, GB), 1% glutamine, and 1% penicillin-streptomycin at 37° C. in a humidified atmosphere containing 5% carbon dioxide. Apoptosis was measured by annexin V binding. Exposure of phosphatidylserine was quantified by surface annexin V staining as previously described (cf. B. Bellosillo et al., Blood 1998, vol. 92, pp. 1406-1414). […] Data were analyzed using Cell Quest software. […] Viability (V) was measured by analysis of phosphatidylserine exposure and PI uptake, and it is expressed as the percentage of non apoptotic cells. […]

B-CLL cells = experiment: cells; assay type: cell-based, human
Text: Forty-six patients with B-CLL, seven patients with SMZL, two patients with lymphoproliferative disorder without a specific diagnosis, and four healthy donors were studied. All patients were diagnosed according to standard clinical and laboratory criteria. Written informed consent was obtained from all patients. Mononuclear cells from peripheral blood samples were isolated by centrifugation on a Ficoll/Hypaque (Seromed, Berlin, Germany) gradient and cryopreserved in liquid nitrogen in the presence of 10% dimethyl sulfoxide (DMSO).
Lymphocytes were cultured immediately after thawing at a concentration of 2 to 5×10^6 cells/ml in RPMI 1640 culture medium (Biological Industries, Beit Haemek, Israel) supplemented with 10% heat-inactivated fetal calf serum (Gibco-BRL, Paisley, GB), 1% glutamine, and 1% penicillin-streptomycin at 37° C. in a humidified atmosphere containing 5% carbon dioxide.
Apoptosis was measured by annexin V binding. Exposure of phosphatidylserine was quantified by surface annexin V staining as previously described (cf. B. Bellosillo et al., Blood 1998, vol. 92, pp. 1406-1414). To analyze apoptosis in T cells from the samples, 500,000 cells were incubated for 24 h with the indicated factors. Cells were then washed in phosphate-buffered saline (PBS) solution, and incubated in 50 μl of annexin binding buffer with APC-conjugated anti-CD3 and PE-conjugated anti-CD19 for 10 minutes in the dark. Cells were then diluted with annexin binding buffer to a volume of 250 μl and incubated with 0.5 μl of annexin V-FITC for 15 minutes in the dark. 250 μl of annexin binding buffer and 5 μl of PI were added just before flow cytometric analysis. Data were analyzed using Cell Quest software.
The effect of several doses of acadesine, ranging from 50 μM to 1 mM, on the viability of B-CLL cells, was studied. […] Cells from 5 patients were incubated for 24 h with various doses of acadesine as indicated.
Cells from 46 patients were incubated for 24 h with (+) or without (−) 0.5 mM acadesine. Viability (V) was measured by analysis of phosphatidylserine exposure and PI uptake, and it is expressed as the percentage of non apoptotic cells. All the patients were sensitive to acadesine and the viability decreased from 67±11% to 26±14% (n=46).

[4] = system: MCF-7 (breast cancer line); experiment: Effects of acadesine in cell lines: MCF-7; assay type: cell-based
Text: as §1

JVM-2 = experiment: Effects of acadesine in cell lines: JVM-2; assay type: cell-based
Text: as §1

[5] = system: Hela (cervix cancer line); experiment: Effects of acadesine in cell lines: Hela; assay type: cell-based
Text: as §1

[6] = system: B cells from healthy donors; experiment: Apoptosis/viability by flow cytometry, B cells from healthy donors; assay type: cell-based, human; conditions: 0.5 mM, 24 h, 4 healthy donors
Text: Forty-six patients with B-CLL, seven patients with SMZL, two patients with lymphoproliferative disorder without a specific diagnosis, and four healthy donors were studied. All patients were diagnosed according to standard clinical and laboratory criteria. Written informed consent was obtained from all patients. Mononuclear cells from peripheral blood samples were isolated by centrifugation on a Ficoll/Hypaque (Seromed, Berlin, Germany) gradient and cryopreserved in liquid nitrogen in the presence of 10% dimethyl sulfoxide (DMSO). Lymphocytes were cultured immediately after thawing at a concentration of 2 to 5×10^6 cells/ml in RPMI 1640 culture medium (Biological Industries, Beit Haemek, Israel) supplemented with 10% heat-inactivated fetal calf serum (Gibco-BRL, Paisley, GB), 1% glutamine, and 1% penicillin-streptomycin at 37° C. in a humidified atmosphere containing 5% carbon dioxide. Apoptosis was measured by annexin V binding. Exposure of phosphatidylserine was quantified by surface annexin V staining as previously described (cf. B. Bellosillo et al., Blood 1998, vol. 92, pp. 1406-1414). To analyze apoptosis in T cells from the samples, 500,000 cells were incubated for 24 h with the indicated factors. […] Data were analyzed using Cell Quest software. […] Viability is expressed as the mean value ± standard deviation.

HUH7 (liver cancer line) = experiment: Effects of acadesine in cell lines: HUH7; assay type: cell-based
Text: as §1

[7] = system: B cells from patients with SMZL; experiment: Apoptosis/viability by flow cytometry, B cells from SMZL patients; assay type: cell-based, human; conditions: 0.5 mM and 1.0 mM, 24 h, seven SMZL patients
Text: as §2

NC(=O)c1ncn([C@@H]2O[C@H](CO)[C@@H](O)[C@H]2O)c1N [acadesine, 5-amino-1-β-D-ribofuranosyl-1H-imidazole-4-carboxamide]
Concentrations in plasma [1]: 200 µM
Tolerability [1]: well tolerated
Acadesine-induced apoptosis in T cells ([2]; doses up to 1 mM, four B-CLL blood samples): resistant to acadesine-induced apoptosis
Viability of T cells ([2]; higher concentrations 2-4 mM): only slightly affected the viability
Sensitivity to acadesine relative to B-CLL cells (Jurkat (T cell line)): less sensitive to acadesine than B-CLL cells
Sensitivity to acadesine relative to B-CLL cells 293: less sensitive to acadesine than B-CLL cells
Viability of B cells [3]: markedly reduced
Viability of B cells (B-CLL cells; 0.5 mM, 24 h, 18 B-CLL patients): markedly reduced
Induction of apoptosis (B-CLL cells; 24 h incubation, doses 50 μM to 1 mM, cells from 5 patients): induced apoptosis in a dose-dependent manner
viability at 500 µM (B-CLL cells; Homo sapiens, B-CLL, 24 h, read-out: Viability (percentage of non apoptotic cells)): 26 ± 14%
EC50 (B-CLL cells; Homo sapiens, B-CLL, 24 h incubation, 50 μM to 1 mM, cells from 5 patients (n=5), read-out: EC50 (viability of B-CLL cells)): 380 ± 60 µM
Sensitivity to acadesine relative to B-CLL cells [4]: less sensitive to acadesine than B-CLL cells
Sensitivity to acadesine relative to B-CLL cells (JVM-2): less sensitive to acadesine than B-CLL cells
Sensitivity to acadesine relative to B-CLL cells [5]: less sensitive to acadesine than B-CLL cells
Viability of B cells [6]: markedly reduced
Sensitivity to acadesine relative to B-CLL cells (HUH7 (liver cancer line)): less sensitive to acadesine than B-CLL cells
Viability of B cells [7]: markedly reduced
